# “Also recorded” adds a separate entry of the source.
# Columns and labels:
# MCF7 Adr 10 [1] = assay: 72 hour MTT proliferation assay, reversal of drug resistance in MCF7 Adr 10; assay type: cell-based, human; details: [1c] 0 μM; for IC50: Homo sapiens, NCI/ADR-RES
# Description: (§1) In 72 hour MTT proliferation assays using the following method, compounds 1b, 1c and 1d were assessed for inhibition of Vinca alkaloid and anthracycline drug resistance in MDR MCF7. Additionally, compounds 1b and 1c were assessed for potentiation of sensitivity to Vinca alkaloid and anthracycline drugs in the parental MCF7 WT cell line.
# (§2) METHOD: 5000 cells per well were plated in 100 μl of IMDM containing 10% FCS and allowed to adhere overnight. The following day the cells were treated with N-substituted 1,4-diaminoanthraquinones and exposed to graded concentrations of antineoplastic agents. 50 μl of IMDM 10% FCS containing either vehicle or N-substituted 1,4-diaminoanthraquinones at 3 times the final tested concentration was added to cells at timed intervals. The plates were incubated for 2 hours at 37° C. to allow maximal cellular accumulation of N-substituted 1,4-diaminoanthraquinones. 40 μl aliquots of IMDM 10% FCS containing either vehicle or graded concentrations of antineoplastic drugs at 5 times the final concentration were added to treatment groups. Following this addition, 10 μl of IMDM 10% FCS containing either vehicle or N-substituted 1,4-diaminoanthraquinone at 5 times the final concentration was added to each group of wells. The cells were incubated for 72 hours after treatment. At this time the viable cells in each treatment group were estimated in a colorimetric assay by adding MTT and incubating the cells at 37° C. for 3-4 hours. The media in each well was aspirated and MTT formazan was solubilized in isopropyl alcohol acidified with 0.1 N HCl. The absorbance of the solubilized formazan was quantitated using a plate reader spectrophotometer. […] The concentrations of antineoplastic drugs which inhibited proliferation by 50% (IC50's) were estimated by calculating a percentage from the ratio: antineoplastic drug treated groups/control group absorbance and plotting the dose response curve on semilog paper. The IC50 was estimated from this curve. To assess the effects of inhibition of resistance by N-substituted 1,4-diaminoanthraquinones, the percentages were calculated relative to cell groups treated with resistance modifier alone and IC50's calculated as above. A reversal factor was calculated by dividing the IC50 to the antineoplastic drug alone (Control group) by the IC50 to antineoplastic drug in cells treated with resistance modifier.
# MCF7 Adr 10 [2] = assay: Tumor cell clonogenic assay, MCF7 ADR 10; assay type: cell-based, human; details: Homo sapiens, NCI/ADR-RES, read-out: Continuous Exposure IC50, MCF7 ADR 10
# Description: The tumor cell clonogenic assays measure clonal proliferation of tumor cells. In this assay, 300-500 cells are plated in 10 cm^2 wells, allowed to adhere overnight, and are treated the following day. Tumor cell colonies were counted after 10-12 days of culture. The times of exposure in these experiments are similar; however, the concentrations of FCS are 20% in the CFU-GM assay and 10% in the tumor cell clonogenic assays. The IC50's are calculated as described above for the MTT proliferation assays.
# MCF7 WT [3] = assay: Tumor cell clonogenic assay, MCF7 WT; assay type: cell-based, human; details: Homo sapiens, MCF7, read-out: Continuous Exposure IC50, MCF7 WT
# Description: The tumor cell clonogenic assays measure clonal proliferation of tumor cells. In this assay, 300-500 cells are plated in 10 cm^2 wells, allowed to adhere overnight, and are treated the following day. Tumor cell colonies were counted after 10-12 days of culture. […] The IC50's are calculated as described above for the MTT proliferation assays.
# PKC [4] = assay: Micellar PKC screening assay; assay type: biochemical
# Excerpt: The N-substituted diaminoanthraquinone, 1b, (1,4-bis-[[3'-(diethylamino)propyl]amino]anthraquinone), was identified as a PKC inhibitor in the micellar PKC screening assay and in platelets. […] Spectrophotometric analysis of 1b and lc indicated they were excellent chromophores with absorbance maxima at 648 and 600 nm in chloroform, respectively, and extinction coefficients of approximately 20,000. At these wavelengths, there was minimal absorbance by cellular components contained in the chloroform phase. These properties of 1b and 1c were utilized to determine the time course of accumulation of these compounds in MDR MCF7 Adr 10 cells.
# The activities of 1a, 1b, 1c and 1d and mitoxantrone, an anthraquinone antineoplastic drug, were evaluated in vinblastine drug accumulation assays performed by the following method. […] Mitoxantrone was identified as a PKC inhibitor in miceliar PKC assays. Compound 1d (1,4-bis-[[2-(4-morpholino)ethyl]amino]anthraquinone) was only evaluated in cellular studies.
# [5] = test system: MCF7 Adr 10 human breast cancer cells; assay: Vinblastine accumulation assay, MCF7 Adr 10; assay type: cell-based; details: for activity in vinblastine accumulation assay / drug accumulation: MDR MCF7
# Description: [^3 H] vinblastine ([^3 H] VLB) was added to a final concentration of 100 nM and the cells were incubated for 2.5 hours. At this time, the cells were washed 3 times in ice cold PBS and lysed in buffer containing 0.1% Triton X-100. Net accumulation of [^3 H] vinblastine was expressed as pmol/mg protein. In [^3 H]
# patients = details: human, in vivo; cited from earlier work
# MCF7 WT [6] = assay: 72 hour MTT proliferation assay, potentiation of sensitivity in MCF7 WT; assay type: cell-based, human
# Description: as §1, §2
# P-glycoprotein = details: literature; cited from earlier work
# MDR cell lines = details: literature; cited from earlier work
# PKC [7] = details: literature; cited from earlier work
# [8] = test system: patients with tumors clinically resistant to adriamycin; details: cited from earlier work
smiles,measurement,setting,value
"COc1cccc2c1C(=O)c1c(O)c3c(c(O)c1C2=O)C[C@@](O)(C(=O)CO)C[C@@H]3O[C@H]1C[C@H](N)[C@H](O)[C@H](C)O1 [ADR, reference compound]",IC50,"MCF7 Adr 10 [1]; average ± SD of 4 experiments, read-out: ADR IC50",38000 nM
same,Reversal Factor (ADR),MCF7 Adr 10 [1],1.0
same,IC50,MCF7 Adr 10 [2],3400 nM
same,IC50,MCF7 WT [3],5.6 nM
"CCCCCCCCNc1ccc(NCCCCCCCC)c2c1C(=O)c1ccccc1C2=O [Compound 1a, 1,4-bis-(octylamino) anthraquinone]",PKC activity in micellar PKC screening assay,PKC [4],PKC stimulation
same,activity in vinblastine accumulation assay / drug accumulation,[5],inactive; also recorded: did not show significant activity
"O=C1c2ccccc2C(=O)c2c(NCCN3CCOCC3)ccc(NCCN3CCOCC3)c21 [Compound 1d, 1,4-bis-[[2-(4-morpholino)ethyl]amino]anthraquinone]",minimal effective concentration,"[5]; Homo sapiens, NCI/ADR-RES, 100 nM [3H] VLB, 2.5 hours, FIGS. 2 and 3, read-out: lowest concentration which causes a doubling of basal accumulation of vinblastine",2.5 µM
same,activity in vinblastine accumulation assay / drug accumulation,[5],increase vinblastine accumulation in MDR MCF7
COc1ccc(CCN(C)CCC[C@](C#N)(c2ccc(OC)c(OC)c2)C(C)C)cc1OC [D-verapamil],toxicity in humans,patients,too toxic to use at high concentrations in humans
"COc1cccc2c1C(=O)c1c(O)c3c(c(O)c1C2=O)C[C@@](O)(C(C)=O)C[C@@H]3O[C@H]1C[C@H](N)[C@H](O)[C@H](C)O1 [DNR, reference compound]",IC50,"MCF7 Adr 10 [1]; average ± SD of 3 experiments, read-out: DNR IC50",6700 nM
same,Reversal Factor (DNR),MCF7 Adr 10 [1],1.0
"CC[C@]1(O)C[C@H]2CN(CCc3c([nH]c4ccccc34)[C@@](C(=O)OC)(c3cc4c(cc3OC)N(C=O)[C@H]3[C@@](O)(C(=O)OC)[C@H](OC(C)=O)[C@]5(CC)C=CCN6CC[C@]43[C@@H]65)C2)C1 [VCR, reference compound]",IC50,"MCF7 WT [6]; Homo sapiens, MCF7, read-out: VCR IC50",1.9 nM
same,Reversal Factor (VCR),"MCF7 WT [6]; [1c] 0 μM, MCF7 WT",1.0
same,IC50,"MCF7 Adr 10 [1]; average ± SD of 3 experiments, read-out: VCR IC50",3300 nM
same,Reversal Factor (VCR),MCF7 Adr 10 [1],1.0
same,IC50,MCF7 Adr 10 [2],970 nM
same,IC50,MCF7 WT [3],0.4 nM
CCCCCCCCCCCCCC(=O)O[C@@H]1[C@@H](C)[C@@]2(O)[C@@H](C=C(CO)C[C@]3(O)C(=O)C(C)=C[C@@H]23)[C@@H]2C(C)(C)[C@]12OC(C)=O [phorbol myristate acetate],phosphorylation of the P-glycoprotein,P-glycoprotein,stimulate phosphorylation of the P-glycoprotein
CN(C)CCOc1ccc(/C(=C(/CCCl)c2ccccc2)c2ccccc2)cc1 [toremifene],drug accumulation and reversal of resistance in MDR cell lines,MDR cell lines,can also modulate resistance of estrogen receptor-negative MDR cell lines
CN1CCN(CCCN2c3ccccc3Sc3ccc(C(F)(F)F)cc32)CC1 [trifluoperazine],PKC inhibition in vitro,PKC [7],non-specifically inhibit PKC in vitro
same,drug accumulation and reversal of resistance in MDR cell lines,MDR cell lines,increase drug accumulation and decrease resistance in MDR cell lines
same,tumor responses,"[8]; 36 patients, oral, with constant infusion adriamycin",One complete response and six partial responses
same,dose-limiting toxicity,"[8]; human, in vivo",Neurotoxicity of trifluoperazine to the extrapyramidal tracts was dose-limiting
same,plasma concentrations below those optimal for modulation of chemoresistance in vitro,"[8]; human, in vivo",approximately 10 fold
same,phosphorylation of the P-glycoprotein,P-glycoprotein,stimulate phosphorylation of the P-glycoprotein

# Source: patent US5436243A, “Aminoanthraquinone derivatives to combat multidrug resistance” (priority 1993, dated 1995)
